Our source for the IC50 values is BindingDB's records for doi:10.1021/acsmedchemlett.8b00461 (Pfizer, 2019).

Assay [1] is described as follows: Inhibition of BTK in anti-CD3/CD28-stimulated human CD4-positive T cells assessed as reduction in cell proliferation pretreated for 30 mins followed by anti-CD3/CD28-stimulation and measured after 3 days by [3H]-thymidine incorporation assay. (In general: Uptake of a labelled nucleoside into DNA is a usual measure of proliferation.)
Assay [2] is described as follows: Inhibition of BTK in goat anti-human IgM F(ab')2-stimulated human B cells assessed as reduction in cell proliferation pretreated for 30 mins followed by goat anti-human IgM F(ab')2-stimulation and measured after 3 days by [3H]-thymidine incorporation assay.

Broadly, the IC50 is the concentration that gives 50% inhibition. Turning to `N#CN1CCC[C@@H](n2nc(-c3ccc(Oc4ccc(F)cc4F)cc3)c(C(N)=O)c2N)C1`, the IC50 in assay [1] was > 10000 nM; in assay [2] it was 2.7 nM.

For `N#CN1CCC[C@@H](n2nc(-c3ccc(Oc4cccc(C(F)(F)F)n4)cc3)c(C(N)=O)c2N)C1`, the IC50 was 10100 nM in assay [1] and 15 nM in assay [2].

Consider `N#CN1CCC[C@@H](n2nc(-c3ccc(Oc4ccc(Cl)cn4)cc3)c(C(N)=O)c2N)C1`, for which the figures for the IC50 in assay [1] and in assay [2] were > 10000 nM and 1.6 nM, respectively.

For the compound `N#CN1CCCC(n2nc(-c3ccc(Oc4ccc(Cl)cc4)cc3)c(C(N)=O)c2N)C1` (single isomer, unassigned), the IC50 in assay [1] worked out at 8150 nM; in assay [2], 1.7 nM.

Turning to `N#CN1CCC[C@@H](n2nc(-c3ccc(Oc4ncc(Cl)cc4F)cc3)c(C(N)=O)c2N)C1` [(R)-5-amino-3-(4-((5-chloro-3-fluoropyridin-2-yl)oxy)phenyl)-1-(1-cyanopiperidin-3-yl)-1H-pyrazole-4-carboxamide], the values for the IC50 in assay [1] and in assay [2] were > 10000 nM and 19 nM, respectively.
